For the experiment, the target named is T1, CXCR4 (Homo sapiens, UniProt P61073).
T1 construct: Human T lymphoblast cells (CCRF-CEM) expressing endogenous CXCR4 receptors; endogenous in cells; host or cells: CCRF-CEM (human T lymphoblast cells)
In words: CXCR4-CEM calcium flux assay, antagonist mode (inhibition of SDF-1α-induced calcium flux). It is filed as cell-based. As for the experimental part: CXCR4-CEM Calcium Flux Assays
Exemplary compounds of the invention were tested for their ability to induce or inhibit calcium flux in CCRF-CEM cells, a human cell line that endogenously expresses CXCR4. Activation of CXCR4 stimulates G protein signaling which, in CCRF-CEM cells, causes a series of downstream events that leads to the release of intracellular calcium stores, or calcium flux. Calcium ion concentrations can be easily measured using a wide variety of […] calcium indicators and, as a result, calcium flux assays are commonly employed methods for measuring G protein-coupled receptor (GPCR) activity. Because the therapeutic potential of CXCR4 antagonists as anti-cancer agents likely relies on their ability to inhibit CXCR4-mediated G protein signaling, this assay was utilized as a first-pass measure of inhibitor potency.
The cells were then equilibrated to room temperature for 30 minutes before assay. […] For “antagonist mode” assessment, the cells are subsequently incubated for 25 minutes at room temperature. SDF-1α (R&D System Cat #350-NS/CF) was then added at a final concentration of 4 nM to stimulate the cells. Inhibition of SDF-1α-induced calcium flux was monitored by FDSS6000 for 90 seconds.
After correcting for background, EC50 values were determined. […] Inhibition data for the test compound over a range of concentrations was plotted as percentage inhibition of the test compound as compared to an internal control compound.
(In general: Calcium flux is commonly read through the fluorescence of an indicator in the cells.)

Setting [1] is: CCRF-CEM cells expressing endogenous CXCR4, stimulated with 4 nM SDF-1α, read-out: CXCR4 Ca^2+ Flux IC50.

The source of these data is patent US12582645B2, “Chemokine CXCR4 receptor modulators and uses related thereto” (Emory University, priority 2017, dated 2026).

Like-named read-outs stand apart in the source and are kept apart here.

T1 sequence (P61073 whole entry): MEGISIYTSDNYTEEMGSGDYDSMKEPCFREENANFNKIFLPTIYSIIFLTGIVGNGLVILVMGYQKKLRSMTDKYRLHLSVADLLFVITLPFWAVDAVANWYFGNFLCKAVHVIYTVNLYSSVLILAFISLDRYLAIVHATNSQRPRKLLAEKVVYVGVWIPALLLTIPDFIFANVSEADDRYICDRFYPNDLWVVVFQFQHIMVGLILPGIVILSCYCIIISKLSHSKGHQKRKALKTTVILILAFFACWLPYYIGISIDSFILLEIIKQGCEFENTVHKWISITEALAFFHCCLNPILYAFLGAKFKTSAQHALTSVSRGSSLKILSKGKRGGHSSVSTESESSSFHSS

As for `Cc1cccnc1CN(CCCN1CCNCC1)C[C@H]1Cc2ccccc2CN1` [EMU149, (R)—N-((3-methylpyridin-2-yl)methyl)-3-(piperazin-1-yl)-N-((1,2,3,4-tetrahydroisoquinolin-3-yl)methyl)propan-1-amine], under setting [1], the IC50 (as a rule, the concentration at which inhibition is half-maximal) turned out to be 92.1 nM. Same read-out and setting: next, `CN1Cc2cccc(N3CCNCC3)c2C[C@@H]1CN(C)[C@H]1CCCc2cccnc21` [EMU234]: 32 nM; `CC(C)N1CCN(c2cccc3c2C[C@H](CN(C)[C@H]2CCCc4cccnc42)NC3)CC1` [EMU197]: 16.9 nM. With `NCc1cccc(CN(C[C@H]2Cc3ccccc3CN2)[C@H]2CCCc3cccnc32)c1` [EMU094, (S)—N-(3-(aminomethyl)benzyl)-N—(((R)-1,2,3,4-tetrahydroisoquinolin-3-yl)methyl)-5,6,7,8-tetrahydroquinolin-8-amine], under setting [1], the IC50 came out at 292 nM.

Consider `NC/C=C\CN(CC1Cc2ncccc2CN1)[C@H]1CCCc2cccnc21` (single isomer, unassigned) [EMU142 (Stereoisomer 1)], for which, under setting [1], the IC50 was 25.6 nM. For the compound `C/C(=C/CN(C[C@H]1Cc2ccccc2CN1)[C@H]1CCCc2cccnc21)CN` [EMU177], the IC50 under setting [1] is 13.2 nM. In the case of `CN(CC1CN(Cc2ccccn2)CCN1)[C@H]1CCCc2cccnc21` (single isomer, unassigned) [EMU023 (Stereoisomer 2)], under setting [1], the IC50 was found to be 1000 nM. The same measure, in the same setting: under `CN(CC1Cc2c(cccc2NC2CCNCC2)CN1)[C@H]1CCCc2cccnc21` (single isomer, unassigned) [EMU044 (Stereoisomer 2)] stands 1700 nM; under `c1ccc2c(c1)CN[C@@H](CN(Cc1ccc(CNCc3ccncc3)cc1)[C@H]1CCCc3cccnc31)C2` [EMU218, (S)—N-(4-(((pyridin-4-ylmethyl)amino)methyl)benzyl)-N—(((R)-1,2,3,4-tetrahydroisoquinolin-3-yl)methyl)-5,6,7,8-tetrahydroquinolin-8-amine], 134 nM.

As for `Cc1cccnc1CN(CCCCN)C[C@H]1Cc2c(cccc2N2CCNCC2)CN1` [EMU166, (R)—N1-((3-methylpyridin-2-yl)methyl)-N1-((5-(piperazin-1-yl)-1,2,3,4-tetrahydroisoquinolin-3-yl)methyl)butane-1,4-diamine], the IC50 under setting [1] came out at 9.88 nM. Turning to `NC1CCC(N(C[C@H]2Cc3ccccc3CN2)[C@H]2CCCc3cccnc32)CC1` (single isomer, unassigned) [EMU073 (Stereoisomer 1)], under setting [1], the IC50 came out at 33.7 nM. On the same count and under the same terms, under `NCC1CC1CN(C[C@H]1Cc2ccccc2CN1)[C@H]1CCCc2cccnc21` (single isomer, unassigned) [EMU030 (Stereoisomer 1)] stands 6.42 nM; under `C(=C\CN(C[C@H]1Cc2ccccc2CN1)[C@H]1CCCc2cccnc21)/CNCc1cccnc1` [EMU222, (E)-N1-(pyridin-3-ylmethyl)-N4-(((R)-1,2,3,4-tetrahydroisoquinolin-3-yl)methyl)-N4-((S)-5,6,7,8-tetrahydroquinolin-8-yl)but-2-ene-1,4-diamine], 92.8 nM. Take `c1cnc2c(c1)CCC[C@@H]2N(CCCN1CCNCC1)Cc1cc2ccccc2cn1` [EMU168]: the IC50 (CXCR4 Ca^2+ Flux IC50, CCRF-CEM cells expressing endogenous CXCR4, stimulated with 4 nM SDF-1α) was determined as 17.3 nM. As to `CN(C[C@H]1Cc2c(cccc2N2C[C@H]3C[C@@H]2CN3)CN1)[C@H]1CCCc2cccnc21` [EMU200], under setting [1], the IC50 came out at 20.7 nM. `CN1Cc2cccc(N3CCN4CCC[C@@H]4C3)c2C[C@@H]1CN(C)[C@H]1CCCc2cccnc21` [EMU239]: under setting [1], the IC50 turned out to be 44.6 nM.

In the case of `Cc1ccc(CN(C)C[C@H]2Cc3c(cccc3N3CCNCC3)CN2)nc1` [EMU130, (R)—N-methyl-1-(5-methylpyridin-2-yl)-N-((5-(piperazin-1-yl)-1,2,3,4-tetrahydroisoquinolin-3-yl)methyl)methanamine], the IC50 under setting [1] came out at 510 nM. As to `CC1(C)CCC(NCc2ccc(CN(C[C@H]3Cc4ccccc4CN3)[C@H]3CCCc4cccnc43)cc2)CC1` [EMU181, (S)—N-(4-(((4,4-dimethylcyclohexyl)amino)methyl)benzyl)-N—(((R)-1,2,3,4-tetrahydroisoquinolin-3-yl)methyl)-5,6,7,8-tetrahydroquinolin-8-amine], the IC50 under setting [1] amounted to 661 nM.

As to `c1ccc2c(c1)CN[C@@H](CN(Cc1ccc(CNC3CCOCC3)cc1)[C@H]1CCCc3cccnc31)C2` [EMU217, (S)—N-(4-(((tetrahydro-2H-pyran-4-yl)amino)methyl)benzyl)-N—(((R)-1,2,3,4-tetrahydroisoquinolin-3-yl)methyl)-5,6,7,8-tetrahydroquinolin-8-amine], the IC50 under setting [1] was 90.3 nM.

Consider `CN1Cc2cccc(N3CCN4CCC[C@H]4C3)c2C[C@@H]1CN(C)[C@H]1CCCc2cccnc21` [EMU241], for which the IC50 under setting [1] was 58.1 nM. Same read-out and setting: next, `CN(C[C@H]1Cc2c(cccc2N2C[C@@H]3C[C@H]2CN3)CN1)C1CCCc2cccnc21` (stereo partly drawn) [EMU135]: 146 nM. Turning to `C[C@@H](c1ccccn1)N(C[C@H]1Cc2ccccc2CN1)C[C@H]1Cc2ccccc2CN1` [EMU065, (S)-1-(pyridin-2-yl)-N,N-bis(((R)-1,2,3,4-tetrahydroisoquinolin-3-yl)methyl)ethanamine], the concentration for half-maximal inhibition (IC50) under setting [1] was 1100 nM. Take `NC[C@H]1CC[C@H](CN(C[C@H]2Cc3ccccc3CN2)[C@H]2CCCc3cccnc32)CC1` [EMU121]: under setting [1], the IC50 is 343 nM. On the same count and under the same terms, under `FC1(F)CCC(CN(C[C@H]2Cc3c(cccc3N3CCNCC3)CN2)[C@H]2CCCc3cccnc32)CC1` [EMU120] stands 498 nM; under `NC(=O)NC/C=C/CN(CC1Cc2ncccc2CN1)[C@H]1CCCc2cccnc21` (single isomer, unassigned) [EMU212 (Stereoisomer 1)], 430 nM. On the same count and under the same terms, under `CN(C[C@H]1Cc2c(cccc2N2CCN(C3COC3)CC2)CN1)[C@H]1CCCc2cccnc21` [EMU183] stands 380 nM; under `CN1CCN(c2cccc3c2CC(CN(C)[C@H]2CCCc4cccnc42)N(C)C3)CC1` (stereo partly drawn) [EMU090], 171 nM. Still for that read-out and setting: next, `CN(C[C@H]1Cc2c(cccc2N2CCN(c3ncccn3)CC2)CN1)[C@H]1CCCc2cccnc21` [EMU203]: 30.7 nM; `CN(CC1Cc2c(cccc2N2CCNCC2)CN1)[C@H]1CCCc2cccnc21` (single isomer, unassigned) [EMU034 (Stereoisomer 1)]: 6.08 nM. `CN(CC1Cc2c(cccc2N2CCC(N)CC2)CN1)[C@H]1CCCc2cccnc21` (single isomer, unassigned) [EMU058]: under setting [1], the IC50 stood at 33.4 nM. As to `CN(CC1Cc2ncccc2CN1)[C@H]1CCCc2cccnc21` (single isomer, unassigned) [EMU174 (Stereoisomer 2)], the IC50 under setting [1] was 476 nM. Regarding `CN(CC1CN(Cc2ccccn2)CCN1)[C@H]1CCCc2cccnc21` (single isomer, unassigned) [EMU023], under setting [1], the concentration for half-maximal inhibition (IC50) was greater than 33300 nM.

For the compound `Cc1cccnc1CN(C)C[C@H]1Cc2c(cccc2N2CCNCC2)CN1` [EMU127, (R)—N-methyl-1-(3-methylpyridin-2-yl)-N-((5-(piperazin-1-yl)-1,2,3,4-tetrahydroisoquinolin-3-yl)methyl)methanamine], under setting [1], the IC50 was 91.2 nM. Consider `CN(C[C@H]1Cc2c(cccc2N2C[C@H]3CCN(C)[C@H]3C2)CN1)C1CCCc2cccnc21` (stereo partly drawn) [EMU235], for which, under setting [1], the half-maximal inhibitory concentration (IC50) is 18.7 nM. On to `NCCCCN(Cc1nccs1)C[C@H]1Cc2ccccc2CN1` [EMU111, (R)—N1-((1,2,3,4-tetrahydroisoquinolin-3-yl)methyl)-N1-(thiazol-2-ylmethyl)butane-1,4-diamine], for which the half-maximal inhibitory concentration (IC50) under setting [1] was greater than 33300 nM. Turning to `N[C@H]1CC[C@H](CN(C[C@H]2Cc3ccccc3CN2)[C@H]2CCCc3cccnc32)CC1` [EMU074], under setting [1], the IC50 turned out to be 284 nM. Same read-out and setting: next, `NC(=O)NC/C=C\CN(C[C@H]1Cc2ccccc2CN1)[C@H]1CCCc2cccnc21` [EMU211]: 207 nM; `Cc1cccnc1CN(CCCN1CCNCC1)C[C@H]1Cc2c(cccc2N2CCNCC2)CN1` [EMU164, (R)—N-((3-methylpyridin-2-yl)methyl)-3-(piperazin-1-yl)-N-((5-(piperazin-1-yl)-1,2,3,4-tetrahydroisoquinolin-3-yl)methyl)propan-1-amine]: 33.7 nM; `CN(C[C@H]1Cc2c(cccc2N2CCNC(C)(C)C2)CN1)[C@H]1CCCc2cccnc21` [EMU136]: 33.9 nM.

Consider `CCN1CCN(c2cccc3c2C[C@H](CN(C)[C@H]2CCCc4cccnc42)NC3)CC1` [EMU199], for which the IC50 under setting [1] was determined as 13.8 nM. With `NC/C=C/CN(CC1Cc2ncccc2CN1)[C@H]1CCCc2cccnc21` (single isomer, unassigned) [EMU192 (Stereoisomer 1)], the IC50 under setting [1] turned out to be 146 nM. Still for that read-out and setting: under `CN(C)C1CCN(c2cccc3c2C[C@H](CN(C)[C@H]2CCCc4cccnc42)NC3)CC1` [EMU228] stands 35.9 nM. Same read-out and setting: under `Cc1cnc(CN(C)C[C@H]2Cc3c(cccc3N3CCNCC3)CN2)c(C)c1` [EMU107, (R)-1-(3,5-dimethylpyridin-2-yl)-N-methyl-N-((5-(piperazin-1-yl)-1,2,3,4-tetrahydroisoquinolin-3-yl)methyl)methanamine] stands 21.4 nM; under `CN1CCC(N(C)c2cccc3c2C[C@H](CN(C)[C@H]2CCCc4cccnc42)NC3)CC1` [EMU240], 13.4 nM.

For the compound `CN(CC1Cc2c(cccc2NC2CCNCC2)CN1)[C@H]1CCCc2cccnc21` (single isomer, unassigned) [EMU044 (Stereoisomer 1)], the IC50 under setting [1] is 18.1 nM.
